For 18 compounds, Activity and zone of inhibition results are on record in ChEMBL document CHEMBL3046842, “Antimicrobial and insect antifeedant activities of some Trogers bases” (2012).

Molecules are shown by their SMILES. Calls of active or inactive are those of the source.

The test system of one assay is Achaea janata. Briefly: Antifeedant activity against fourth instar larvae of Achaea janata fed on compound treated castor leaves at 200 ppm after 24 hrs by leaf disc method. In kind it is functional, organism-based.
Another assay has as its system Aspergillus niger. Briefly: Antifungal activity against Aspergillus niger at 50 ug/ml after 72 hrs by disc diffusion method. In kind it is functional, organism-based. A general note: In agar diffusion tests the substance spreads into inoculated agar from a disc or well.
The next assay concerns Penicillium. Put plainly: Antifungal activity against Penicillium at 50 ug/ml after 72 hrs by disc diffusion method. In kind it is functional, organism-based.
For a further assay, the system named is Candida albicans. Briefly: Antifungal activity against Candida albicans at 250 ug/ml after 72 hrs by disc diffusion method. In kind it is functional. The settings on record: for zone of inhibition at 250 µg/mL: read-out: IZ.
The next assay has as its system Enterococcus faecalis. Briefly: Antibacterial activity against Enterococcus faecalis at 250 ug/ml after 24 to 45 hrs by disc diffusion method. In kind it is functional. The settings on record: for zone of inhibition at 250 µg/mL: read-out: IZ.
The subject of a further assay is Proteus vulgaris. Briefly: Antibacterial activity against Proteus vulgaris at 250 ug/ml after 24 to 45 hrs by disc diffusion method. In kind it is functional. The following applies: read-out: IZ.
The subject of a further assay is Klebsiella pneumoniae. Briefly: Antibacterial activity against Klebsiella pneumoniae at 250 ug/ml after 24 to 45 hrs by disc diffusion method. In kind it is functional. The following applies: read-out: IZ.
In a further assay the test system is Pseudomonas. Put plainly: Antibacterial activity against Pseudomonas at 250 ug/ml after 24 to 45 hrs by disc diffusion method. In kind it is functional. The settings on record: read-out: IZ.
Another assay has as its system Staphylococcus aureus. Briefly: Antibacterial activity against Staphylococcus aureus at 250 ug/ml after 24 to 45 hrs by disc diffusion method. In kind it is functional. The following applies: read-out: IZ.
The next assay relates to Escherichia coli. Briefly: Antibacterial activity against Escherichia coli at 250 ug/ml after 24 to 45 hrs by disc diffusion method. In kind it is functional. The settings on record: read-out: IZ.

With `Cc1cc2c(cc1Cl)N1Cc3cc(C)c(Cl)cc3N(C2)C1`, the outcome with Achaea janata was Active. Further, the outcome in the assay on Aspergillus niger and in the assay on Penicillium was inactive. The zone of inhibition at 250 µg/mL with Candida albicans is 13 mm; in the assay with Enterococcus faecalis, 13 mm; in the assay with Proteus vulgaris it was 8 mm; in the assay on Klebsiella pneumoniae, 13 mm; in the assay on Pseudomonas, 13 mm; with Staphylococcus aureus it was 8 mm. Also, the zone of inhibition at 250 µg/mL in the assay with Escherichia coli was 8 mm.

In the case of `COc1ccc2c(c1Cl)CN1CN2Cc2c1ccc(OC)c2Cl`, the result in the assay on Achaea janata and in the assay on Penicillium was Active. Moreover, the outcome with Aspergillus niger was inactive. Further, the zone of inhibition at 250 µg/mL with Candida albicans turned out to be 20 mm; with Enterococcus faecalis, 13 mm; in the assay on Proteus vulgaris it was 20 mm; in the assay on Klebsiella pneumoniae it was 20 mm; in the assay on Pseudomonas, 20 mm; with Staphylococcus aureus it was 20 mm. Moreover, the zone of inhibition at 250 µg/mL in the assay with Escherichia coli worked out at 20 mm.

For the compound `Brc1ccc2c(c1)CN1CN2Cc2cc(Br)ccc21`, the outcome in the assay with Achaea janata, in the assay on Aspergillus niger and in the assay with Penicillium was Active. For the same compound, the zone of inhibition at 250 µg/mL worked out at 20 mm in the assay on Candida albicans; 20 mm in the assay with Enterococcus faecalis; 13 mm with Proteus vulgaris; 20 mm in the assay on Klebsiella pneumoniae; 13 mm in the assay on Pseudomonas; 20 mm in the assay on Staphylococcus aureus. In the assay with Escherichia coli, the zone of inhibition at 250 µg/mL was determined as 20 mm.

On to `Clc1cccc2c1N1Cc3cccc(Cl)c3N(C2)C1`, for which, in the assay with Achaea janata, the result was Active. Moreover, the result in the assay on Aspergillus niger and in the assay with Penicillium was inactive. Further, the zone of inhibition at 250 µg/mL in the assay with Candida albicans came to 8 mm; in the assay on Enterococcus faecalis, 13 mm; with Proteus vulgaris, 8 mm; in the assay with Klebsiella pneumoniae it was 8 mm; in the assay on Pseudomonas, 8 mm; in the assay on Staphylococcus aureus, 13 mm. Besides, the zone of inhibition at 250 µg/mL with Escherichia coli was found to be 8 mm.

For `Brc1ccc2c(c1)N1Cc3ccc(Br)cc3N(C2)C1`, in the assay on Achaea janata, the result was Active. Moreover, the result with Aspergillus niger, in the assay on Penicillium and in the assay with Enterococcus faecalis was inactive. Besides, the zone of inhibition at 250 µg/mL in the assay with Candida albicans was found to be 8 mm; in the assay with Proteus vulgaris, 8 mm; with Klebsiella pneumoniae, 8 mm; in the assay with Pseudomonas, 8 mm; with Staphylococcus aureus, 13 mm; in the assay with Escherichia coli, 8 mm.

For the compound `O=C(c1ccccc1)c1cc(Cl)cc2c1N1Cc3cc(Cl)cc(C(=O)c4ccccc4)c3N(C2)C1`, the result with Achaea janata and with Aspergillus niger was Active. Further, the result with Penicillium and with Enterococcus faecalis was inactive. Also, the zone of inhibition at 250 µg/mL in the assay with Candida albicans was found to be 20 mm; in the assay on Proteus vulgaris, 13 mm; with Klebsiella pneumoniae, 13 mm; with Pseudomonas it was 13 mm; with Staphylococcus aureus, 13 mm; in the assay on Escherichia coli, 13 mm.

As for `Cc1cc(Cl)cc2c1N1Cc3cc(Cl)cc(C)c3N(C2)C1`, the outcome with Achaea janata and in the assay with Penicillium was Active. In the assay with Aspergillus niger, the outcome was inactive. In addition, the zone of inhibition at 250 µg/mL in the assay on Candida albicans was 8 mm; with Enterococcus faecalis, 13 mm; in the assay with Proteus vulgaris, 8 mm; with Klebsiella pneumoniae, 13 mm; in the assay with Pseudomonas, 13 mm; with Staphylococcus aureus, 8 mm. Besides, in the assay on Escherichia coli, the zone of inhibition at 250 µg/mL came out at 8 mm.

Regarding `Brc1cccc2c1N1Cc3cccc(Br)c3N(C2)C1`, in the assay on Achaea janata, the outcome was Active. Also, the outcome in the assay with Aspergillus niger, with Penicillium, with Candida albicans and in the assay on Enterococcus faecalis was inactive. Moreover, the zone of inhibition at 250 µg/mL amounted to 8 mm in the assay with Proteus vulgaris; 8 mm in the assay on Klebsiella pneumoniae; 8 mm in the assay on Pseudomonas; 8 mm with Staphylococcus aureus; 13 mm in the assay on Escherichia coli.

`COc1cc2c(cc1Cl)N1Cc3cc(OC)c(Cl)cc3N(C2)C1`: the result in the assay with Achaea janata and in the assay with Penicillium was Active. In the assay on Aspergillus niger, the outcome was inactive. For the same compound, the zone of inhibition at 250 µg/mL was 20 mm in the assay on Candida albicans; 8 mm in the assay with Enterococcus faecalis; 20 mm in the assay with Proteus vulgaris; 20 mm with Klebsiella pneumoniae; 20 mm in the assay on Pseudomonas; 20 mm in the assay on Staphylococcus aureus. The zone of inhibition at 250 µg/mL with Escherichia coli came to 20 mm.

On to `COc1ccc2c(c1Br)CN1CN2Cc2c1ccc(OC)c2Br`, for which the outcome with Achaea janata, with Aspergillus niger and in the assay with Penicillium was Active. Also, the zone of inhibition at 250 µg/mL was determined as 13 mm in the assay with Candida albicans; 13 mm in the assay on Enterococcus faecalis; 20 mm in the assay with Proteus vulgaris; 20 mm in the assay with Klebsiella pneumoniae; 20 mm with Pseudomonas; 20 mm with Staphylococcus aureus. For the same compound, the zone of inhibition at 250 µg/mL in the assay with Escherichia coli was 20 mm.

As for `Cc1cc(Br)cc2c1N1Cc3cc(Br)cc(C)c3N(C2)C1`, in the assay with Achaea janata, the result was Active. Further, the outcome in the assay with Aspergillus niger and in the assay with Penicillium was inactive. For the same compound, the zone of inhibition at 250 µg/mL was 8 mm in the assay on Candida albicans; 13 mm in the assay on Enterococcus faecalis; 8 mm in the assay on Proteus vulgaris; 13 mm with Klebsiella pneumoniae; 13 mm with Pseudomonas; 8 mm with Staphylococcus aureus. Besides, the zone of inhibition at 250 µg/mL in the assay on Escherichia coli came out at 8 mm.

Take `Clc1cccc2c1CN1CN2Cc2c(Cl)cccc21`: the outcome in the assay with Achaea janata was Active. Besides, the outcome in the assay with Aspergillus niger and in the assay with Penicillium was inactive. Also, the zone of inhibition at 250 µg/mL with Candida albicans was found to be 8 mm; in the assay with Enterococcus faecalis, 13 mm; with Proteus vulgaris it was 8 mm; in the assay on Klebsiella pneumoniae, 8 mm; in the assay on Pseudomonas, 8 mm; with Staphylococcus aureus, 13 mm. In the assay on Escherichia coli, the zone of inhibition at 250 µg/mL was determined as 8 mm.

Consider `Cc1cc(C)c2c(c1)CN1CN2Cc2cc(C)cc(C)c21`, for which the outcome with Aspergillus niger and with Penicillium was inactive. The zone of inhibition at 250 µg/mL with Candida albicans worked out at 13 mm; in the assay on Enterococcus faecalis it was 8 mm; in the assay with Proteus vulgaris, 13 mm; with Klebsiella pneumoniae, 13 mm; in the assay on Pseudomonas, 8 mm; in the assay on Staphylococcus aureus, 13 mm. Besides, in the assay on Escherichia coli, the zone of inhibition at 250 µg/mL was 13 mm.

With `COc1ccc2c(c1)CN1CN2Cc2cc(OC)ccc21`, the result in the assay with Aspergillus niger was inactive. The outcome with Penicillium was Active. Besides, the zone of inhibition at 250 µg/mL with Candida albicans came to 20 mm; in the assay with Enterococcus faecalis, 20 mm; with Proteus vulgaris it was 13 mm; in the assay with Klebsiella pneumoniae, 13 mm; in the assay on Pseudomonas it was 20 mm; in the assay on Staphylococcus aureus, 20 mm. Moreover, in the assay with Escherichia coli, the zone of inhibition at 250 µg/mL was found to be 20 mm.

As to `N#Cc1ccc2c(c1)CN1CN2Cc2cc(C#N)ccc21`, the result in the assay with Aspergillus niger, with Penicillium and with Enterococcus faecalis was inactive. The zone of inhibition at 250 µg/mL in the assay on Candida albicans, in the assay on Proteus vulgaris, in the assay with Klebsiella pneumoniae, in the assay on Pseudomonas, in the assay on Staphylococcus aureus and in the assay on Escherichia coli was 13 mm each time.

For `CCOC(=O)c1ccc2c(c1)CN1CN2Cc2cc(C(=O)OCC)ccc21`, the result with Aspergillus niger, in the assay on Penicillium and in the assay with Candida albicans was inactive. Also, the zone of inhibition at 250 µg/mL with Enterococcus faecalis worked out at 20 mm; with Proteus vulgaris, 13 mm; in the assay on Klebsiella pneumoniae, 13 mm; with Pseudomonas, 20 mm; in the assay with Staphylococcus aureus, 20 mm; in the assay with Escherichia coli, 20 mm.

Take `Cc1cccc2c1N1Cc3cccc(C)c3N(C2)C1`: the result in the assay with Aspergillus niger and with Penicillium was inactive. The zone of inhibition at 250 µg/mL was found to be 13 mm in the assay on Candida albicans; 13 mm in the assay on Enterococcus faecalis; 8 mm in the assay on Proteus vulgaris; 13 mm in the assay with Klebsiella pneumoniae; 13 mm with Pseudomonas; 8 mm in the assay with Staphylococcus aureus. The zone of inhibition at 250 µg/mL with Escherichia coli came to 8 mm.

In the case of `c1ccc2c(c1)CN1CN2Cc2ccccc21`, the result in the assay with Aspergillus niger, in the assay on Penicillium, in the assay with Candida albicans and in the assay on Enterococcus faecalis was inactive. The zone of inhibition at 250 µg/mL in the assay with Proteus vulgaris stood at 8 mm; in the assay with Klebsiella pneumoniae it was 8 mm; in the assay with Pseudomonas it was 8 mm; in the assay on Staphylococcus aureus, 13 mm; in the assay on Escherichia coli, 8 mm.
